Test results: patent publication US20190308956A1, “PIPERAZINE DERIVATIVES AS ANTIVIRAL AGENTS WITH INCREASED THERAPEUTIC ACTIVITY” (SERVICIO ANDALUZ DE SALUD, priority 2016, published 2019)

How the values were obtained:
wild-type HAdV5 = test: Virus yield reduction (burst assay, TCID50), HAdV5; assay type: cell-based; settings: 50 μM, A549 cells, 48 h, yield with DMSO divided by yield with compound
Experimental: (§1) 1.8. Virus yield reduction. The effect of the active compounds on virus production was evaluated in a burst assay A549 cells were infected with wild-type HAdV5 or HAdV16 (MOI 100) in the presence or absence of 50 μM compounds. After 48 h, cells were harvested and subjected to three rounds of freeze/thaw. Serial dilutions of clarified lysates were titrated on A549 cells and TCID50 values were calculated using an endpoint dilution method.46

[1] = Cytotoxicity assay (alamarBlue cell viability); assay type: cell-based, Human; settings: human, A549 cells, 48 h
Method in brief: (§2)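 Actively dividing A549 cells exposed to compounds for 48 h, then alamarBlue (1/10th in culture medium) added for a further 4 h. CC50 taken as concentration giving 50% cytotoxicity; selectivity index = CC50/IC50, with IC50 from HAdV infection inhibition.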

HAdV5-GFP = test: Plaque assay, HAdV5-GFP in 293β5 cells; assay type: cell-based; settings: for Selectivity Index (SI) HAdV5: ratio CC50 to IC50, HAdV5; for IC50: read-out: IC50 HAdV5; for inhibition at 10 µM: read-out: Percentage of plaque formation inhibition, HAdV5-GFP, 10 μM, 293β5 cell line
Method in brief: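 293β5 cells infected with HAdV5-GFP at 0.06 vp/cell for 2 h at 37° C. Then overlaid with agar/EMEM containing compound (5 to 1 μM stated range; screen run at 10 μM). After 7 days at 37° C., GFP plaques imaged and counted relative to DMSO control.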

HAdV16-GFP = test: Plaque assay, HAdV16-GFP in 293β5 cells; assay type: cell-based; settings: for Selectivity Index (SI) HAdV16: ratio CC50 to IC50, HAdV16
Experimental: 1.5. Plaque assay. For low MOI infections, active compounds were further evaluated in a plaque assay. 293β5 cells were seeded in 6-well plates at 4×10^5 cells per well in duplicate for each condition. When cells reached 80-90% confluency, they were infected with HAdV5-GFP or HAdV16-GFP (0.06 vp/cell) and rocked for 2 h at 37° C. The inoculum was removed and the cells were washed once with PBS. The cells were then carefully overlaid with 4 ml/well of equal parts of 1.6% […] Difco Agar Noble (Becton, Dickinson & Co, Sparks, MD) and 2× EMEM (BioWhittaker) supplemented with 2x penicillin/streptomycin, 2× L-glutamine and 10% FBS. The mixture also contained compound in concentrations ranging from 5 to 1 μM. Following incubation for 7 days at 37° C., plates were scanned with a Typhoon 9410 imager (GE Healthcare Life Sciences), and plaques were quantified with ImageJ.43

HCMV (AD169) = test: HCMV infectivity assay by quantitative PCR; assay type: cell-based, human cytomegalovirus; settings: Human betaherpesvirus 5, AD169, MRC5, MRC-5 cells, 72 h, qPCR, read-out: Inhibition of HCMV DNA replication
Experimental: 1.9. HCMV infectivity assay by quantitative PCR. […] After 72 h of incubation at 37° C., DNA was purified from the cell lysate with the QlAamp DNA Mini Kit (QIAGEN, Valencia, Calif.) following the manufacturer's instructions. TaqMan primers and probes for a region of the US28 gene were designed with the GenScript Real-time PCR (TaqMan) Primer Design software (GenScript). Oligonucleotides sequences were CMV-F: 5′-[…]-3′; CMV-R: 5′-[…]-3′; and CMV-Probe: 5′-[…]-3′. Real-time PCR mixtures consisted of 10 μl the purified DNA, CMV-F at a concentration of 100 nM, CMV-R at a concentration of 300 nM, and CMV-Probe at a concentration of 50 nM in a total volume of 12.5 μl and mixed with 12.5 μl of KAPA PROBE FAST qPCR Master Mix (KAPABiosystems, MA). The PCR cycling protocol was 95° C. for 10 min followed by 40 cycles of 95° C. for 30 sec and 58° C. for 60 sec. Human glyceraldehyde-3-phosphate dehydrogenase (GAPDH) was used as internal control. Oligonucleotides sequences for GAPDH and conditions were those previously reported by Rivera et al.44 For quantification, gene fragment from US28 and GAPDH were cloned into the pGEM-T Easy vector (Promega) and known concentrations of template were used to generate a standard curve in parallel for each experiment. All assays were performed in a C1000 Thermal Cycler apparatus (BioRad).

wild-type HAdV16 = test: Virus yield reduction (burst assay, TCID50), HAdV16; assay type: cell-based; settings: 50 μM, A549 cells, 48 h, yield with DMSO divided by yield with compound
Experimental: as §1

A549 cells = test: Cytotoxicity assay (alamarBlue cell viability); assay type: cell-based, Human; settings: A549 cells, 48 h; read-out: CC50
Method in brief: as §2

wild type HAdV5 = test: HAdV5 DNA quantification by real-time PCR; assay type: cell-based; settings: A549, 24 h, A549 cells, 24 h post-infection, qPCR, read-out: Inhibition of HAdV5 DNA replication
Experimental: 1.6. DNA quantification by real-time PCR. For DNA quantification, A549 cells (150,000 cells/well in a 24 wells-plate) were infected with wild type HAdV5 or HAdV16 (100 vp/cell) and incubated for 2 h at 37° C. in complete DMEM. After the incubation, excess virus was removed and the medium was replaced with 500 μl of complete DMEM containing 50 μM of either compounds or the same volume of DMSO (positive control). All samples were done in triplicate. After 24 h of incubation at 37° C., DNA was purified from the cell lysate with the QlAamp DNA Mini Kit (QIAGEN, Valencia, Calif.) following the manufacturer's instructions. TaqMan primers and probes for a region of the HAdV5 hexon were designed with the GenScript Real-time PCR (TaqMan) Primer Design software (GenScript). Oligonucleotides sequences were AdF: 5′-[…]-3′; AdR: 5′-[…]-3′; and AdProbe: 5′-[…]-3′. […]
Human glyceraldehyde-3-phosphate dehydrogenase (GAPDH) gene was used as internal control. Oligonucleotides sequences for GAPDH and conditions were those previously reported by Rivera et al.44 For quantification, gene fragments from hexon and GAPDH were cloned into the pGEM-T Easy vector (Promega) and known concentrations of template were used to generate a standard curve in parallel for each experiment. […]

Row | SMILES | Virus yield reduction HAdV5 (wild-type HAdV5) | CC50 at 48 h [1] | Selectivity Index (SI) HAdV5 (HAdV5-GFP) | IC50 (HAdV5-GFP) | inhibition at 10 µM (HAdV5-GFP) | IC50 (HAdV16-GFP) | Selectivity Index (SI) HAdV16 (HAdV16-GFP) | inhibition at 50 µM (HCMV (AD169)) | Virus yield reduction HAdV16 (wild-type HAdV16) | CC50 (A549 cells) | inhibition at 50 µM (wild type HAdV5)
1 | O=C(c1cc2ccccc2o1)N1CCN(C(=O)Nc2ccc(Cl)cc2)C(c2ccccc2)C1 (stereo not shown) [Compound 60, 4-(Benzofuran-2-carbonyl)-1-[(4-chlorophenyl)aminocarbonyl]-2-phenylpiperazine] | 9.9 ± 3.4 fold | 194 ± 9.19 µM | 79 | 2.5 ± 1.17 µM | 96 to 100% | 3.4 ± 0.93 µM | 56.9 | 98.2 ± 2.1% | 27.4 ± 16.9 fold | – | –
2 | O=C(c1cc2ccccc2o1)N1CCN(C(=O)Nc2ccc([N+](=O)[O-])cc2)C(c2ccccc2)C1 (stereo not shown) [Compound 59, 4-(Benzofuran-2-carbonyl)-1-[(4-nitrophenyl)aminocarbonyl]-2-phenylpiperazine] | 35.7 ± 13.5 fold | 193.9 ± 1.68 µM | 93.5 | 2.1 ± 0.1 µM | 96 to 100% | 3.5 ± 1.03 µM | 55.4 | 99.9 ± 0.06% | 34.6 ± 11.6 fold | – | –
3 | CC(C)(C)OC(=O)N1CCN(C(=O)Nc2ccc([N+](=O)[O-])cc2)C(c2ccccc2)C1 (stereo not shown) [Compound 46, 4-tert-Butoxycarbonyl-1-[(4-nitrophenyl)aminocarbonyl]-2-phenylpiperazine] | 211.7 ± 44.1 fold | 161 ± 45.2 µM | 47.3 | 3.4 ± 0.96 µM | 96 to 100% | 4.8 ± 1.24 µM | 33.6 | 99.6 ± 0.39% | 265.5 ± 29.1 fold | 161 ± 45.2 µM | –
4 | O=C(c1cc2ccccc2o1)N1CCN(C(=O)Nc2cc(C(F)(F)F)ccc2Cl)C(c2ccccc2)C1 (stereo not shown) [Compound 65, 4-(Benzofuran-2-carbonyl)-1-[(2-chloro-5-trifluoromethylphenyl)aminocarbonyl]-2 phenylpiperazine] | 60.3 ± 15.2 fold | 131 ± 17.8 µM | 116.2 | 1.1 ± 0.05 µM | 96 to 100% | 1.8 ± 0.2 µM | 72.7 | 98.2 ± 0.38% | 33.2 ± 7.3 fold | – | 33.1 ± 0.5%
5 | N#Cc1ccc(NC(=O)N2CCN(C(=O)c3cc4ccccc4o3)CC2c2ccccc2)cc1 (stereo not shown) [Compound 63, 4-(Benzofuran-2-carbonyl)-1-[(4-cyanophenyl)aminocarbonyl]-2-phenylpiperazine] | 16.9 ± 5.2 fold | 199.8 ± 0.26 µM | 42.7 | 4.7 ± 0.11 µM | 96 to 100% | 3.9 ± 1.12 µM | 51.2 | 99.9 ± 0.05% | 60.9 ± 12.5 fold | 199.8 ± 0.26 µM | –
6 | O=C(c1cc2ccccc2o1)N1CCN(C(=O)Nc2ccccc2[N+](=O)[O-])C(c2ccccc2)C1 (stereo not shown) [Compound 64, 4-(Benzofuran-2-carbonyl)-1-[(2-nitrophenyl)aminocarbonyl]-2-phenylpiperazine] | 34.5 ± 12.6 fold | 132 ± 6.01 µM | 53.3 | 2.5 ± 0.03 µM | 96 to 100% | 2.3 ± 0.17 µM | 57.3 | 97.9 ± 0.9% | 46.5 ± 10.8 fold | 132 ± 6.01 µM | –
